# Measurements from patent US11896592B2, “Certain triazolopyridines and triazolopyrazines, compositions thereof and methods of use therefor” (Hutchison Medipharma Limited, priority 2009, dated 2024).
# Target: T1, Recombinant human Met (c-Met) (Homo sapiens, UniProt P08581)
# T1 construct: purchased Invitrogen PV3143
# Experiment: Inhibition of c-Met kinase activity using Transcreener FP assay
# Type: biochemical
# Settings: IC50, inhibition of c-Met kinase activity, Poly E4Y substrate, 28° C. 45 min
# Protocol: Compound dilution: dilute test articles to 5 folds of the testing concentration using 20% DMSO.
# The mixture is kept on ice until use;
# Prepare ATP standard curve stock as following:
# 3. Enzymatic reaction: in 96-well reaction plate
# Add 5 μL of test article or 5 μL of 20% DMSO or 5 μL of 500 mM EDTA;
# Add 10 μL of Enzyme/Substrate stock;
# Add 10 μL of ATP Diluent to begin the enzyme reaction and mix on plate shaker;
# Add 5 μL of 20% DMSO, 10 μL of assay buffer and 10 μL of ATP standard curve stock into standard curve wells;
# Gently shake at 28° C. for 45 min.
# 4. Stop reaction and detect ADP
# Prepare Detection Mix: According to the procedures described in the Assay kit, Alexa633 tracer, ADP antibody and stop & detect buffer were added into H2O and mixed thoroughly. Prepare Tracer Only control: According to the procedures described in the Assay kit, ADP Alexa633 tracer and stop & detect buffer were added to H2O and mixed throughly.
# Prepare No Tracer control: According to the procedures described in the Assay kit, the stop & detect buffer was diluted with H2O;
# Add 25 μL of detection mix, Tracer Only control and No Tracer control into corresponding wells, respectively;
# The reaction plate was gently shaken at 28° C. for 1 h;
# Florescence polarization (FP) was measured on TECAN F500. Excitation wavelength: 610 nm, Emission wavelength: 670 nm.
# Compound well [ADP] represents the ADP concentration of the compound well. Positive control well [ADP] represents the ADP concentration of the 20% DMSO well. Conversion of mP value to ADP concentration is based on the formula which is determined by standard curve.
# IC50: calculated using XL-Fit 2.0 software.
# T1 sequence (P08581 956-1390 limits assumed): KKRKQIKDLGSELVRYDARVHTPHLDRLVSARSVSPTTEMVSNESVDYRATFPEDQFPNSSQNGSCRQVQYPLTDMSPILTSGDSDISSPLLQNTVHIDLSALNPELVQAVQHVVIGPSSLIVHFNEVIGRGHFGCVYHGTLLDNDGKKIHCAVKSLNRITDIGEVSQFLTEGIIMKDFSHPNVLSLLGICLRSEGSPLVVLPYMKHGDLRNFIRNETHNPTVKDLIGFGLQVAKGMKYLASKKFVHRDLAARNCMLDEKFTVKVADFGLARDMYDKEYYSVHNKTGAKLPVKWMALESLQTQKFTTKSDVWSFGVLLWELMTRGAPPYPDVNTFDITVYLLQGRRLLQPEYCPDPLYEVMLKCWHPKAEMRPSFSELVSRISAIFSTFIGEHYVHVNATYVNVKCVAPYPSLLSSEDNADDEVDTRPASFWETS
row,IC50,SMILES
1,0.001 to 0.1 µM,C[C@H](c1ccc2nccn2c1)n1nnc2ncc(-c3cnn(C)c3)nc21 [Compound 271]

# Same assay, conditions: Poly E4Y substrate, 28° C. 45 min, read-out: IC50, inhibition of c-Met kinase activity
row,SMILES,IC50
1,OCCOc1ccnc(Nc2cnc3nnn(Cc4ccc5ncccc5c4)c3n2)c1 [Compound 201],0.1 to 1 µM
2,OCCn1cc(-c2cnc3nnn(Cc4csc5ncccc45)c3n2)cn1 [Compound 30],0.1 to 1 µM
3,OCCn1cc(-c2ccc3nnn(C4(c5ccc6ncccc6c5)CC4)c3n2)cn1 [Compound 123],0.1 to 1 µM
4,Clc1cccc(Nc2ccc3nnn(Cc4cc5cnccc5s4)c3n2)c1 [Compound 170],0.1 to 1 µM
5,O[C@@H]1CCC[C@H]1Nc1ccnc(Nc2cnc3nnn(Cc4ccc5ncccc5c4)c3n2)c1 [Compound 206],0.1 to 1 µM
6,Cn1cc(-c2ccc3nnn(Cc4cc5cnccc5s4)c3n2)cn1 [Compound 71],0.1 to 1 µM
7,FC(F)(F)Cn1cc(-c2ccc3nnn(Cc4ccc5ncccc5n4)c3n2)cn1 [Compound 292],0.1 to 1 µM
8,OCCn1cc(-c2ccc3nnn(Cc4cc5cnccc5s4)c3n2)cn1 [Compound 74],0.1 to 1 µM
9,COCCOc1cc(-c2ccc3nnn(Cc4ccc5ncccc5c4)c3n2)ccn1 [Compound 107],0.1 to 1 µM
10,c1nn(C2CCNCC2)cc1-c1cnc2nnn(Cc3cc4[nH]ncc4s3)c2n1 [Compound 17],0.1 to 1 µM
11,CNC(=O)c1ccnc(Nc2cnc3nnn(Cc4ccc5ncccc5c4)c3n2)c1 [Compound 174],0.1 to 1 µM
12,COCCOc1cccc(-c2ccc3nnn(Cc4ccc5ncccc5c4)c3n2)c1 [Compound 96],0.1 to 1 µM
13,COc1cccc(-c2ccc3nnn(Cc4ccc5ncccc5c4)c3n2)c1 [Compound 88],0.001 to 0.1 µM
14,c1cnc2[nH]cc(Cn3nnc4ccc(-c5cnn(C6CCNCC6)c5)nc43)c2c1 [Compound 116],0.1 to 1 µM
15,c1cnc2ccc(Cn3nnc4ncc(Nc5ccsc5)nc43)cc2c1 [Compound 161],0.001 to 0.1 µM
16,OCCn1cc(-c2ccc3nnn(Cc4ccc5nccn5n4)c3n2)cn1 [Compound 273],0.1 to 1 µM
17,CN1CC[C@H](Nc2cc(Nc3cnc4nnn(Cc5ccc6ncccc6c5)c4n3)ccn2)C1 [Compound 229],0.001 to 0.1 µM
18,CCOCc1cnc2ccc(Cn3nnc4ncc(-c5cnn(C)c5)nc43)cn12 [Compound 321],0.001 to 0.1 µM
19,OCCn1cc(Nc2cnc3nnn(Cc4ccc5ncsc5c4)c3n2)cn1 [Compound 240],0.001 to 0.1 µM

row,SMILES,IC50
1,COCCOc1ccc(-c2ccc3nnn(Cc4ccc5ncccc5c4)c3n2)cn1 [Compound 99],0.1 to 1 µM
2,c1cnc2ccc(Cn3nnc4ccc(OC5CCOCC5)nc43)cc2c1 [Compound 249],0.1 to 1 µM
3,CNc1cc(Nc2cnc3nnn(Cc4ccc5ncccc5c4)c3n2)ccn1 [Compound 231],0.1 to 1 µM
4,"Cn1cc(-c2cc(Cl)c3nnn(Cc4ccc5ncccc5c4)c3n2)cn1 [Compound 263, 6-((7-Chloro-5-(1-methyl-1H-pyrazol-4-yl)-3H-[1,2,3]triazolo[4,5-b]pyridin-3-yl)methyl)quinoline]",0.1 to 1 µM
5,Cc1cncc(Nc2cnc3nnn(Cc4ccc5ncccc5c4)c3n2)c1 [Compound 158],0.001 to 0.1 µM
6,O[C@@H]1CCC[C@H]1Nc1ccnc(Nc2ccc3nnn(Cc4ccc5ncccc5c4)c3n2)c1 [Compound 219],0.1 to 1 µM
7,COc1ccc(-c2ccc3nnn(Cc4ccc5ncccc5c4)c3n2)cn1 [Compound 70],0.001 to 0.1 µM
8,c1nc2ccc(Cn3nnc4ncc(-c5cnn(C6CNC6)c5)nc43)cn2n1 [Compound 286],0.1 to 1 µM
9,OC1CCN(c2ccc3nnn(Cc4ccc5ncccc5c4)c3n2)C1 (centres unmarked) [Compound 246],0.001 to 0.1 µM
10,CC(=O)Nc1ccc(-c2ccc3nnn(Cc4ccc5ncccc5c4)c3n2)cn1 [Compound 91],0.001 to 0.1 µM
11,c1cnc2ccc(Cn3nnc4ncc(Nc5ccncc5)nc43)cc2c1 [Compound 169],0.001 to 0.1 µM
12,CCCn1cc(-c2ccc3nnn(Cc4ccc5nccn5c4)c3n2)cn1 [Compound 140],0.001 to 0.1 µM
13,Cn1cc(-c2cnc3nnn(Cc4ccc5ncc(CN6CCOCC6)n5c4)c3n2)cn1 [Compound 320],0.1 to 1 µM
14,Cc1cccc(N(C)c2cnc3nnn(Cc4ccc5ncccc5c4)c3n2)n1 [Compound 154],0.1 to 1 µM
15,Brc1cnc2nnn(Cc3ccc4ncnn4c3)c2n1 [Compound 284],0.1 to 1 µM
16,Cn1cc(-c2ccc3nnn(Cc4ccc5ncsc5c4)c3n2)cn1 [Compound 72],0.001 to 0.1 µM
17,CCn1cc(-c2cnc3nnn(Cc4cc5c(cnn5CC)s4)c3n2)cn1 [Compound 37],0.1 to 1 µM
18,c1cnc2ccc(Cn3nnc4ccc(-n5ccnc5)nc43)cc2c1 [Compound 214],0.001 to 0.1 µM
19,OCCn1cc(-c2cnc3nnn(Cc4ccn5ncc(CO)c5c4)c3n2)cn1 [Compound 313],0.001 to 0.1 µM

# Now from value to molecule:
row,IC50,SMILES
1,0.001 to 0.1 µM,Cn1cc(-c2cnc3nnn(Cc4ccc5ncc(CO)n5c4)c3n2)cn1 [Compound 272]
2,0.001 to 0.1 µM,c1cncc(Oc2cnc3nnn(Cc4ccc5ncccc5c4)c3n2)c1 [Compound 258]
3,0.001 to 0.1 µM,OCCOc1cc(Nc2cnc3nnn(Cc4ccc5ncccc5c4)c3n2)ccn1 [Compound 194]
4,0.001 to 0.1 µM,COCCOc1ccnc(Nc2cnc3nnn(Cc4ccc5ncccc5c4)c3n2)c1 [Compound 185]
5,0.001 to 0.1 µM,COc1ccc(-c2cnc3nnn(Cc4ccc5nccn5c4)c3n2)cn1 [Compound 276]
6,0.001 to 0.1 µM,N#CCn1cc(-c2cnc3nnn(Cc4cc5[nH]ncc5s4)c3n2)cn1 [Compound 27]
7,0.001 to 0.1 µM,CN(C)Cc1cnc2ccc(Cn3nnc4ncc(-c5cnn(C)c5)nc43)cn12 [Compound 319]
8,0.001 to 0.1 µM,Clc1cncc(Oc2cnc3nnn(Cc4ccc5ncccc5c4)c3n2)c1 [Compound 254]
9,0.001 to 0.1 µM,COc1ncc(-c2cnc3nnn(C(C)c4ccc5nccn5c4)c3n2)cc1NS(C)(=O)=O (centres unmarked) [Compound 329]
10,0.001 to 0.1 µM,CC(c1ccc2nccn2c1)n1nnc2ncc(-c3cnn(CC(F)(F)F)c3)nc21 (centres unmarked) [Compound 277]
11,0.001 to 0.1 µM,Cc1cnc2ccc(Cn3nnc4ncc(-c5cnn(C)c5)nc43)cn12 [Compound 298]
12,0.001 to 0.1 µM,COc1cccnc1Nc1cnc2nnn(Cc3ccc4ncccc4c3)c2n1 [Compound 213]
13,0.001 to 0.1 µM,Clc1ccc(Nc2cnc3nnn(Cc4ccc5ncccc5c4)c3n2)nc1 [Compound 164]
14,0.001 to 0.1 µM,COCCn1cc(-c2cnc3nnn(Cc4ccn5nccc5c4)c3n2)cn1 [Compound 268]
15,0.001 to 0.1 µM,CC(c1c[nH]c2ncccc12)n1nnc2ccc(-c3cnn(CCO)c3)nc21 (centres unmarked) [Compound 113]
16,0.001 to 0.1 µM,Cc1cc(Nc2cnc3nnn(Cc4ccc5ncccc5c4)c3n2)on1 [Compound 160]
17,0.001 to 0.1 µM,c1cnc2ccc(Cn3nnc4ncc(Nc5cc[nH]n5)nc43)cc2c1 [Compound 198]
18,0.001 to 0.1 µM,CC(c1ccc2ncccc2c1)n1nnc2ccc(-c3cnn(CCO)c3)nc21 (racemic) [Compound 332]
19,0.001 to 0.1 µM,COc1cc(Nc2cnc3nnn(Cc4ccc5ncccc5c4)c3n2)ccn1 [Compound 195]

row,IC50,SMILES
1,0.001 to 0.1 µM,N#Cc1ccnc(Nc2cnc3nnn(Cc4ccc5ncccc5c4)c3n2)c1 [Compound 223]
2,0.001 to 0.1 µM,c1cn2cc(Cn3nnc4ncc(-c5cnn(C6CCNCC6)c5)nc43)ccc2n1 [Compound 46]
3,0.001 to 0.1 µM,COCCOc1ccc(-c2ccc3nnn(Cc4ccc5ncccc5c4)c3n2)cc1 [Compound 97]
4,0.001 to 0.1 µM,CS(=O)(=O)Nc1ccc(-c2ccc3nnn(Cc4ccc5ncccc5c4)c3n2)cc1 [Compound 84]
5,0.001 to 0.1 µM,Fc1ccc(-c2cnc3nnn(Cc4ccn5nccc5c4)c3n2)cc1 [Compound 303]
6,0.001 to 0.1 µM,FC(F)(F)Cn1cc(-c2cnc3nnn(Cc4ccc5nccn5n4)c3n2)cn1 [Compound 287]
7,0.001 to 0.1 µM,Clc1ccnc(Nc2cnc3nnn(Cc4ccc5ncccc5c4)c3n2)c1 [Compound 153]
8,0.001 to 0.1 µM,c1cnc2ccc(Cn3nnc4ccc(-c5cn[nH]c5)nc43)cc2c1 [Compound 145]
9,0.001 to 0.1 µM,CS(=O)(=O)n1cc(-c2ccc3nnn(Cc4ccc5ncccc5c4)c3n2)cn1 [Compound 150]
10,0.001 to 0.1 µM,COc1ccncc1Nc1cnc2nnn(Cc3ccc4ncccc4c3)c2n1 [Compound 210]
11,0.001 to 0.1 µM,CC(C)OCc1cnc2ccc(Cn3nnc4ncc(-c5cnn(C)c5)nc43)cn12 [Compound 323]
12,0.001 to 0.1 µM,CCC(c1ccc2nccn2c1)n1nnc2ncc(-c3cnn(C)c3)nc21 (centres unmarked) [Compound 326]
13,0.001 to 0.1 µM,N#Cc1ccc(-c2ccc3nnn(Cc4ccc5ncccc5c4)c3n2)s1 [Compound 102]
14,0.001 to 0.1 µM,N#Cc1ccc(Nc2cnc3nnn(Cc4ccc5ncccc5c4)c3n2)nc1 [Compound 225]
15,0.001 to 0.1 µM,COCCn1cc(-c2cnc3nnn(Cc4n[nH]c5ncccc45)c3n2)cn1 [Compound 15]
16,0.001 to 0.1 µM,CNc1ccc(-c2ccc3nnn(Cc4ccc5ncccc5c4)c3n2)cn1 [Compound 76]
17,0.001 to 0.1 µM,OCCn1cc(-c2cnc3nnn(Cc4ccc5ncc(CO)n5c4)c3n2)cn1 [Compound 306]
18,0.001 to 0.1 µM,Cn1cc(Nc2cnc3nnn(Cc4ccc5ncccc5c4)c3n2)cn1 [Compound 173]
19,0.001 to 0.1 µM,COc1ccc(-c2cnc3nnn(Cc4ccc5nccn5c4)c3n2)cc1 [Compound 57]
